Source: PubChem BioAssay AID179 (DTP/NCI, 2004)
“And” between values parts separate entries of the source, which are not always exact repeats. Identical values can stand only once. The source made the active and inactive calls.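 How the source made its calls: active means compounds giving half or more protection of infected cells from virus-caused growth loss, again on retest; inactive means the rest.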

System: CEM cells HIV-1 protection, formazan growth assay
Assay: NCI AIDS Antiviral Assay
Settings: for IC50: measured here: growth of uninfected CEM cells
How it was run: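 Soluble formazan readout of cell growth; CEM cells ± HIV-1; 5 drug concs. ≥50% protection → retest; ≥50% again = moderately active; reproducible 100% = confirmed active.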

Structure (SMILES)	outcome	EC50 [µM]	IC50
NC(=N/N=C(/c1ccccc1)c1ccc(N)cc1)/C(N)=N\N=C(/c1ccccc1)c1ccc(N)cc1	inactive	–	–
O=C(NCCc1c[nH]c2ccccc12)C(F)(F)C(F)(F)F	–	> 200	38 µM
C/C(=N\NS(=O)(=O)c1ccc(C)cc1)c1ccccn1	–	> 200	58.9 µM
O=C(CNc1ccccc1[N+](=O)[O-])Nn1cnc2ccc(S(=O)(=O)Nc3ccccc3[N+](=O)[O-])cc2c1=O	–	> 200	> 200 µM
COC(=O)CC1NC(=O)C1C(C)(OC)OC (configuration not stated)	–	191	251 µM
CC(=O)Nc1ccc(/C=c2\sc3nnc(CCC(=O)Nc4ccccc4Cl)n3c2=O)cc1	–	> 28.8	> 28.8 µM
COc1cc2c(cc1OC)NC(C)=CC(C)=N2	–	> 200	> 200 µM
C=C1CN(S(=O)(=O)c2ccc(C)cc2)CCCN(Cc2cccs2)CCCN(S(=O)(=O)c2ccc(C)cc2)C1	–	> 200	70.8 µM
CC(C)CCC[C@@H](C)C1CCC2[C@@H]3CC=C4C[C@@H](OP(=O)(O)O)CC[C@]4(C)C3CC[C@@]21C (some centres not stated)	–	> 28.2	> 28.2 µM
CCN(CC)CCn1ccc(=O)c2cc3c(=O)ccn(CCN(CC)CC)c3c(C)c21	–	> 17	0.676 µM
N#Cc1ccc(C=C2C(=O)NC(=O)NC2=O)cc1	–	> 209	107 µM
CCOC(=O)c1[nH]n(-c2ccccc2)c(=O)c1/C=N/C(=S)Nc1ccccc1OC	–	> 200	93.3 µM
CCCCCCCCC(=O)NCCN(CCN)C(=O)CCCCCCCC	–	> 100	5.5 µM
Cc1ccc([S+](c2ccccc2)c2cc(C)ccc2C)cc1 (configuration not stated)	–	> 646	1.17 µM
CS/C(c1ccccc1)=[N+](\[O-])Cc1ccccc1	–	> 646	457 µM
CCCCN(CCCC)CC(C(C)=O)C(c1ccccc1)c1c(O)c2ccccc2oc1=O (configuration not stated)	–	> 41.7	> 41.7 µM
CCCCCCCCCCCCCCCCOCC(CP(=O)([O-])OCC[n+]1ccccc1)OC (configuration not stated)	–	> 5.01	2.51 µM
CCc1c(Cc2cc(C)cc(C)c2)n(COCCCCOC(=O)c2ccccc2)c(=O)[nH]c1=O	–	0.00692	2 µM
O=c1oc2ccccc2c2nc3cc(Cl)ccc3cc12	–	> 50.1	> 50.1 µM
CC1(C)N=C(C(N)=O)c2ncn(CCO)c2N1	–	> 200	> 200 µM

Structure (SMILES)	outcome	EC50 [µM]	IC50
CC(=O)O[C@H]1[C@@H]2[C@@H]3[C@@H](C[C@H]1C)[C@@H](C)CO[C@@]1(C)CC/C=C(/C)C[C@@H]2O[C@@H]31	–	> 100	> 100 µM
COc1ccc(C2c3cc4c(cc3OC(N3CCCCC3)C2C)OCO4)cc1 (configuration not stated)	–	> 200	> 200 µM
CCOC(=O)c1cnc2c(ccc3[nH]cccc32)c1=O	–	> 26.9	> 26.9 µM
CSc1c(C#N)c(S)[nH]c(=O)c1C#N	–	83.2	126 µM
COc1ccc(COC(=O)NCC(=O)NC(C)C(=O)NC(Cc2ccccc2)C(=O)OCc2ccccc2)cc1 (configuration not stated)	–	> 200	45.7 µM and 12.9 µM
CN(C)c1ccc(CC2CCc3ccccc32)cc1 (configuration not stated)	–	> 20.9	> 20.9 µM
CC(=O)C(=Cc1ccc([N+](=O)[O-])cc1)C(C)=O	–	> 155	27.5 µM
C=CP(=S)(c1ccccc1)c1ccccc1	–	> 56.2	> 56.2 µM
Cc1cc(=O)[nH]c(CNC(=O)c2ccc3ccccc3c2)n1	–	> 123	> 123 µM
CCOC(=O)CC(=O)Nc1cccc2[nH]cnc12	–	> 200	> 200 µM
CC(C)(C)OC(=O)N1N=NC2C1C1CC(OCc3ccccc3)(OCc3ccccc3)C2O1 (configuration not stated)	–	> 15.8	> 15.8 µM
O=c1c2cccnc2n2n1Cc1ccccc1C2	–	> 200	151 µM
C[C@H](CSC(=O)c1ccccc1)C(=O)N1c2ccccc2C[C@H]1C(=O)O	–	> 200	107 µM
Cn1c2ccccc2c2ncc3[nH]c4ccccc4c3c21	inactive	–	–
Cc1ccc[n+](N)c1N	–	> 1000	> 1000 µM
O=C(/C=C/c1ccc(O)cc1)OC[C@@H](O)COC1OC(CO)C(O)C(O)C1O (some centres not stated)	inactive	–	–
COc1cc2c(c3[nH]cc(C(=O)O)c(=O)c13)NC(=O)CS2	–	> 200	> 200 µM
c1cc(CSSCc2ccncc2)ccn1	–	> 200	0.891 µM
CC(=O)Nc1c(C#N)c2n(c1C(=O)Nc1ccc(S(N)(=O)=O)cc1)CCC2	–	> 200	> 200 µM
CCOc1c2c(nn(C)c1=O)Oc1ccccc1N2CCCN1CCOCC1	–	> 589	19.1 µM
